Results as given in ChEMBL document CHEMBL1614632, “Trend analysis of a database of intravenous pharmacokinetic parameters in humans for 670 drug compounds” (Drug Metab Dispos, 2008).

Assays:
clinical [1] = conditions: human, in vivo, iv, t1/2
clinical [2] = conditions: human, in vivo, iv
clinical [3] = conditions: human, in vivo, iv, CL
clinical [4] = conditions: human, in vivo, iv, Vdss

Row | SMILES | half-life (clinical [1]) | MRT (clinical [2]) | clearance (clinical [3]) | Vd (clinical [4])
1 | CCCCc1nc(Cl)c(CO)n1Cc1ccc(-c2ccccc2-c2nn[nH]n2)cc1 [LOSARTAN] | 1.8 h | 0.75 h | 8.2 mL/min/kg | 0.37 L/kg
2 | S=P(N1CC1)(N1CC1)N1CC1 [THIOTEPA] | 2.7 h | 4 h | 6.7 mL/min/kg | 1.6 L/kg
3 | CCN1CC(CCN2CCOCC2)C(c2ccccc2)(c2ccccc2)C1=O (stereo unspecified) [DOXAPRAM] | 4.1 h | 3.7 h | 5.3 mL/min/kg | 1.2 L/kg
4 | COC(=O)C1=C(C)NC(C)=C(C(=O)OCC(C)C)C1c1ccccc1[N+](=O)[O-] (stereo unspecified) [NISOLDIPINE] | 11 h | 6.5 h | 15 mL/min/kg | 5.5 L/kg
5 | Nc1nc(O)c2ncn(COC(CO)CO)c2n1 [GANCICLOVIR] | 3.7 h | 3.7 h | 4.6 mL/min/kg | 1 L/kg
6 | O=C(O)C(Cl)Cl [DICHLOROACETIC ACID] | 0.65 h | 0.6 h | 5.3 mL/min/kg | 0.19 L/kg
7 | CN(C)CCC=C1c2ccccc2CCc2ccccc21 [AMITRIPTYLINE] | 17 h | 24 h | 6.1 mL/min/kg | 8.7 L/kg
8 | CC(C)(C)NCC(O)COc1ccc(NC(=O)NC2CCCCC2)cc1 (stereo unspecified) [TALINOLOL] | 11 h | 11 h | 4.9 mL/min/kg | 3.3 L/kg
9 | CC1CCCC(C)N1CCCC(O)(c1ccccc1)c1ccccn1 (stereo unspecified) [PIRMENOL] | 8.4 h | 13 h | 1.8 mL/min/kg | 1.4 L/kg
10 | COc1ccc2c(c1)N(C[C@H](C)CN(C)C)c1ccccc1S2 [LEVOMEPROMAZINE] | 30 h | 21 h | 9.9 mL/min/kg | 12 L/kg
11 | CO[C@H]1C[C@@H]2CC[C@@H](C)[C@@](O)(O2)C(=O)C(=O)N2CCCC[C@H]2C(=O)O[C@H]([C@H](C)C[C@@H]2CC[C@H](n3cnnn3)[C@H](OC)C2)CC(=O)[C@H](C)/C=C(\C)[C@@H](O)[C@@H](OC)C(=O)[C@H](C)C[C@H](C)/C=C/C=C/C=C/1C [ZOTAROLIMUS] | 35 h | 33 h | 0.67 mL/min/kg | 1.3 L/kg
12 | COC(=O)C1=C(C)NC(C)=C(C(=O)OCCCN2CCC(c3ccccc3)(c3ccccc3)CC2)[C@@H]1c1cccc([N+](=O)[O-])c1 [DEXNIGULDIPINE] | 22 h | 15 h | 9.3 mL/min/kg | 8.4 L/kg
13 | CC(=O)CCCCn1c(=O)c2c(ncn2C)n(C)c1=O [PENTOXIFYLLINE] | 1.2 h | 0.77 h | 39 mL/min/kg | 1.8 L/kg
14 | CCCC[C@@H]1CC(=O)[C@]2(O)O[C@@H]3[C@@H](NC)[C@@H](O)[C@@H](NC)[C@H](O)[C@H]3O[C@@H]2O1 [TROSPECTOMYCIN] | 11 h | 6.9 h | 1.7 mL/min/kg | 0.7 L/kg
15 | CC1=NS(=O)(=O)c2cc(Cl)ccc2N1 [DIAZOXIDE] | 48 h | 58 h | 0.06 mL/min/kg | 0.21 L/kg
16 | CC1(C)S[C@@H]2[C@H](NC(=O)COc3ccccc3)C(=O)N2[C@H]1C(=O)O [PENICILLIN V] | 0.84 h | 1 h | 6.8 mL/min/kg | 0.41 L/kg
17 | COC(=O)Nc1nc2ccc(C(=O)c3ccccc3)cc2[nH]1 [MEBENDAZOLE] | 1.1 h | 1.3 h | 15 mL/min/kg | 1.2 L/kg
18 | N[C@@H](CC(=O)N1CCn2c(nnc2C(F)(F)F)C1)Cc1cc(F)c(F)cc1F [SITAGLIPTIN] | 12 h | 7.78 h | 6 mL/min/kg | 2.8 L/kg
19 | CN(C)CCCN1c2ccccc2Sc2ccc(Cl)cc21 [CHLORPROMAZINE] | 11 h | 10 h | 16 mL/min/kg | 10 L/kg
20 | Cc1nnc(SCC2=C(C(=O)O)N3C(=O)[C@@H](NC(=O)[C@H](O)c4ccccc4)[C@H]3SC2)s1 | 1 h | 0.83 h | 2.6 mL/min/kg | 0.13 L/kg
21 | C[C@@H]1C(=O)O[C@H]2C[C@@]34[C@H]5C[C@@H](C(C)(C)C)[C@]36[C@@H](OC(=O)[C@@H]6O)O[C@@]4(C(=O)O5)[C@]21O [GINKGOLIDE A] | 3.8 h | 4.6 h | 2.3 mL/min/kg | 0.62 L/kg
22 | Cc1ncc([N+](=O)[O-])n1CCO [METRONIDAZOLE] | 7.1 h | 7.8 h | 0.85 mL/min/kg | 0.4 L/kg
23 | CC(=O)NC[C@H]1CN(c2ccc(N3CCOCC3)c(F)c2)C(=O)O1 [LINEZOLID] | 4.5 h | 5.4 h | 1.8 mL/min/kg | 0.58 L/kg
24 | C[C@H]1c2cccc(O)c2C(=O)C2=C(O)[C@]3(O)C(=O)C(C(N)=O)=C(O)[C@@H](N(C)C)[C@@H]3[C@@H](O)[C@@H]21.O [DOXYCYCLINE] | 14 h | 25 h | 0.46 mL/min/kg | 0.69 L/kg
25 | COc1cccc(C2(O)CCCCC2CN(C)C)c1 (stereo unspecified) [TRAMADOL] | 5.8 h | 7.2 h | 6.5 mL/min/kg | 2.8 L/kg

Row | SMILES | half-life (clinical [1]) | MRT (clinical [2]) | clearance (clinical [3]) | Vd (clinical [4])
26 | CCN(CC)CCNC(=O)c1ccc(NS(C)(=O)=O)cc1 [SEMATILIDE] | 3.8 h | 3.7 h | 3.7 mL/min/kg | 0.82 L/kg
27 | CCOC(=O)Nc1ccc(NCc2ccc(F)cc2)nc1N [FLUPIRTINE] | 8.5 h | 11 h | 1.6 mL/min/kg | 1.1 L/kg
28 | C[C@@H]1CC2=CC(=O)CC[C@]2(C)[C@H]2CC[C@@]3(C)[C@@H](CC[C@@H]3O)[C@]12C | 0.65 h | 0.67 h | 20 mL/min/kg | 0.8 L/kg
29 | C#C[C@]1(OS(=O)(=O)O)CC[C@H]2[C@@H]3CCc4cc(O)ccc4[C@H]3CC[C@@]21C | 9.3 h | 7.8 h | 1.3 mL/min/kg | 0.61 L/kg
30 | Cc1cnc(NCCCN(C)C)c2c1[nH]c1ccc3cc(O)ccc3c12 [INTOPLICINE] | 19 h | 11 h | 18 mL/min/kg | 11 L/kg
31 | CC1(C)S[C@@H]2[C@H](/N=C/N3CCCCCC3)C(=O)N2[C@H]1C(=O)O [AMDINOCILLIN] | 1.1 h | 1 h | 6.3 mL/min/kg | 0.37 L/kg
32 | CC(C)[C@H]1CC[C@H](C(=O)N[C@H](Cc2ccccc2)C(=O)O)CC1 [NATEGLINIDE] | 1.5 h | 1.4 h | 1.8 mL/min/kg | 0.15 L/kg
33 | CC1=C(C(=O)O)N2C(=O)[C@@H](NC(=O)[C@H](N)c3ccc(O)cc3)[C@H]2SC1 [CEFADROXIL] | 1.1 h | 1.5 h | 2.5 mL/min/kg | 0.23 L/kg
34 | CC(C)(C)NC[C@H](O)COc1nsnc1N1CCOCC1 [TIMOLOL] | 2.2 h | 3 h | 8.5 mL/min/kg | 1.5 L/kg
35 | CC(=N)N1CC[C@H](SC2=C(C(=O)O)N3C(=O)[C@H]([C@@H](C)O)[C@H]3C2)C1 | 0.96 h | 1.2 h | 2.6 mL/min/kg | 0.19 L/kg
36 | CCC1=C[C@@H]2CN(C1)Cc1c([nH]c3ccccc13)[C@@](C(=O)OC)(c1cc3c(cc1OC)N(C)[C@H]1[C@@](O)(C(=O)OC)[C@H](OC(C)=O)[C@]4(CC)C=CCN5CC[C@]31[C@@H]54)C2 (stereo in doubt; form 1) [VINORELBINE] | 18 h | 17 h | 12 mL/min/kg | 12 L/kg
37 | CC[C@]1(O)C[C@@H]2CN(CCc3c([nH]c4ccccc34)[C@@](C(=O)OC)(c3cc4c(cc3OC)N(C)[C@H]3[C@@](O)(C(N)=O)[C@H](O)[C@]5(CC)C=CCN6CC[C@]43[C@@H]65)C2)C1 [VINDESINE] | 35 h | 38 h | 2.2 mL/min/kg | 5 L/kg
38 | C=C(CC)C(=O)c1ccc(OCC(=O)O)c(Cl)c1Cl [ETHACRYNIC ACID] | 0.5 h | 0.5 h | 8.73 mL/min/kg | 0.26 L/kg
39 | Cc1[nH]cnc1CN1CCc2c(c3ccccc3n2C)C1=O [ALOSETRON] | 1.6 h | 2.1 h | 8.7 mL/min/kg | 1.1 L/kg
40 | CNS(=O)(=O)CCc1ccc2[nH]cc(C3CCN(C)CC3)c2c1 | 6.6 h | 6.1 h | 6.6 mL/min/kg | 2.4 L/kg
41 | CCN(CC)CCCC(C)Nc1c2ccc(Cl)cc2nc2ccc(OC)cc12 (stereo unspecified) [QUINACRINE] | 120 h | 150 h | 5.1 mL/min/kg | 45 L/kg
42 | C[C@H]1COc2c(N3CCN(C)CC3)c(F)cc3c(=O)c(C(=O)O)cn1c23.C[C@H]1COc2c(N3CCN(C)CC3)c(F)cc3c(=O)c(C(=O)O)cn1c23.O [LEVOFLOXACIN] | 8.8 h | 11 h | 1.9 mL/min/kg | 1.2 L/kg
43 | Nc1nc2c(ncn2CCC(CO)CO)c(=O)[nH]1 [PENCICLOVIR] | 2.1 h | 2.4 h | 8.4 mL/min/kg | 1.1 L/kg
44 | CC[N+](C)(C)c1cccc(O)c1.[Br-] [EDROPHONIUM BROMIDE] | 1.8 h | 1.9 h | 9.6 mL/min/kg | 1.1 L/kg
45 | CC(CC(c1ccccc1)c1ccccc1)NC(C)(C)C (stereo unspecified) [TERODILINE] | 56 h | 81 h | 1.1 mL/min/kg | 5.1 L/kg
46 | O=C(O)Cc1ccccc1Nc1c(Cl)cccc1Cl [DICLOFENAC] | 1.4 h | 1 h | 3.5 mL/min/kg | 0.22 L/kg
47 | O=C(O)CCCc1ccc(N(CCCl)CCCl)cc1 [CHLORAMBUCIL] | 1.1 h | 1.5 h | 2.8 mL/min/kg | 0.26 L/kg
48 | CN1CCN(C(=O)OC2c3nccnc3C(=O)N2c2ccc(Cl)cn2)CC1 (stereo unspecified) [ZOPICLONE] | 5.2 h | 6.6 h | 3.3 mL/min/kg | 1.3 L/kg
49 | C[C@@H]1C(=O)O[C@H]2[C@H](O)[C@@]34[C@H]5C[C@@H](C(C)(C)C)[C@]36[C@@H](OC(=O)[C@@H]6O)O[C@@]4(C(=O)O5)[C@@]12O [GINKOLIDE B] | 5.2 h | 6.6 h | 2.3 mL/min/kg | 0.91 L/kg
